pIC50: −log10 of the molar value.
Experiment: Inhibitory concentration of the against pp60v-src tyrosine kinase obtained from v-src baculovirus-infected insect cells

Q: With `CN(C)C(=O)c1c(SSc2c(C(=O)N(C)C)c3ccccc3n2C)n(C)c2ccccc12` [1,3N,3N-trimethyl-2-(3-dimethylcarbamoyl-1-methyl-1H-2-indolyldisulfanyl)-1H-3-indolecarboxamide0.5 H2O] as the compound, how does the pIC50 read?
A: 6.30

Q: With `O=C(O)CCc1c(SSc2[nH]c3ccccc3c2CCC(=O)O)[nH]c2ccccc12` [2,2 -Dithiobis(1H-indole-3-propanoic acid)] as the compound, how does the pIC50 read?
A: 5.29

Q: With `Cn1c(SSc2c(C(N)=O)c3ccccc3n2C)c(C(N)=O)c2ccccc21` [2-(3-carbamoyl-1-methyl-1H-2-indolyldisulfanyl)-1-methyl-1H-3-indolecarboxamide0.5 H2O] as the compound, how does the pIC50 read?
A: 6.10

Q: With `Cn1c(SSc2c(C(=O)Nc3ccccc3C(=O)O)c3ccccc3n2C)c(C(=O)Nc2ccccc2C(=O)O)c2ccccc21` [2-{2-[3-(2-carboxyphenylcarbamoyl)-1-methyl-1H-2-indolyldisulfanyl]-1-methyl-1H-3-indolylcarboxamido}benzoic acid2.0 H2O] as the compound, how does the pIC50 read?
A: 5.46

Q: With `Cn1c(SSc2c(C(=O)Nc3cccc(C(=O)O)c3)c3ccccc3n2C)c(C(=O)Nc2cccc(C(=O)O)c2)c2ccccc21` [3-{2-[3-(3-carboxyphenylcarbamoyl)-1-methyl-1H-2-indolyldisulfanyl]-1-methyl-1H-3-indolylcarboxamido}benzoic acid0.5 H2O] as the compound, how does the pIC50 read?
A: 5.28

Q: With `Cn1c(SSc2c(C(=O)NCC(O)CO)c3ccccc3n2C)c(C(=O)NCC(O)CO)c2ccccc21` (configuration not stated) [3N-(2,3-dihydroxypropyl)-2-[3-(2,3-dihydroxypropylcarbamoyl)-1-methyl-1H-2-indolyldisulfanyl]-1-methyl-1H-3-indolecarboxamide] as the compound, how does the pIC50 read?
A: 4.65

Q: With `Cn1c(SSc2c(C(=O)Nc3cccs3)c3ccccc3n2C)c(C(=O)Nc2cccs2)c2ccccc21` [3N-(2-thienyl)-1-methyl-2-[1-methyl-3-(2-thienylcarbamoyl)-1H-2-indolyldisulfanyl]-1H-3-indolecarboxamide] as the compound, how does the pIC50 read?
A: < 4.30

Q: With `Cn1c(SSc2c(C(=O)Nc3cccnc3)c3ccccc3n2C)c(C(=O)Nc2cccnc2)c2ccccc21` [3N-(3-pyridyl)-1-methyl-2-[1-methyl-3-(3-pyridylcarbamoyl)-1H-2-indolyldisulfanyl]-1H-3-indolecarboxamide] as the compound, how does the pIC50 read?
A: < 4.30

Q: With `Cn1c(SSc2c(C(=O)NCc3ccccc3)c3ccccc3n2C)c(C(=O)NCc2ccccc2)c2ccccc21` [3N-benzyl-2-(3-benzylcarbamoyl-1-methyl-1H-2-indolyldisulfanyl)-1-methyl-1H-3-indolecarboxamide] as the compound, how does the pIC50 read?
A: 5.10

Q: With `O=C(NCc1ccccc1)c1c(SSc2[nH]c3ccccc3c2C(=O)NCc2ccccc2)[nH]c2ccccc12` [3N-benzyl-2-(3-benzylcarbamoyl-1H-2-indolyldisulfanyl)-1H-3-indolecarboxamide] as the compound, how does the pIC50 read?
A: 4.79

Q: With `CCn1c(SSc2c(C(=O)Nc3ccccc3)c3ccccc3n2CC)c(C(=O)Nc2ccccc2)c2ccccc21` [3N-phenyl-1-ethyl-2-(1-ethyl-3-phenylcarbamoyl-1H-2-indolyldisulfanyl)-1H-3-indolecarboxamide] as the compound, how does the pIC50 read?
A: < 4.00

Q: With `O=C(Nc1ccccc1)c1c(SSc2[nH]c3ccccc3c2C(=O)Nc2ccccc2)[nH]c2ccccc12` [3N-phenyl-2-(3-phenylcarbamoyl-1H-2-indolyldisulfanyl)-1H-3-indolecarboxamide] as the compound, how does the pIC50 read?
A: 5.12

Q: With `Cn1c(SSc2c(C(=O)c3ccc(C(=O)O)cc3)c3ccccc3n2C)c(C(=O)c2ccc(C(=O)O)cc2)c2ccccc21` [4-{2-[3-(4-carboxybenzoyl)-1-methyl-1H-2-indolyldisulfanyl]-1-methyl-1H-3-indolylcarbonyl}benzoic acid2 H2O] as the compound, how does the pIC50 read?
A: 5.40

Q: With `Cn1c(SSc2c(C(=O)Nc3ccc(C(=O)O)cc3)c3ccccc3n2C)c(C(=O)Nc2ccc(C(=O)O)cc2)c2ccccc21` [4-{2-[3-(4-carboxyphenylcarbamoyl)-1-methyl-1H-2-indolyldisulfanyl]-1-methyl-1H-3-indolylcarboxamido}benzoic acid H2O] as the compound, how does the pIC50 read?
A: 5.37

Q: With `Cn1c(SSc2c(C(=O)NCC(=O)O)c3ccccc3n2C)c(C(=O)NCC(=O)O)c2ccccc21` [({2-[3-(Carboxymethyl-carbamoyl)-1-methyl-1H-indol-2-yldisulfanyl]-1-methyl-1H-indole-3-carbonyl}-amino)-acetic acid] as the compound, how does the pIC50 read?
A: 6.00

Q: With `Cc1c(SSc2c(C)c3ccccc3n2C)n(C)c2ccccc12` [di(1,3-dimethyl-1H-2-indolyl) disulfide] as the compound, how does the pIC50 read?
A: < 4.30

Q: With `c1ccc(-c2c(SSc3[nH]c4ccccc4c3-c3ccccc3)[nH]c3ccccc23)cc1` [di(3-phenyl-1H-2-indolyl) disulfide] as the compound, how does the pIC50 read?
A: < 4.00

Q: With `COC(=O)c1ccccc1NC(=O)c1c(SSc2c(C(=O)Nc3ccccc3C(=O)OC)c3ccccc3n2C)n(C)c2ccccc12` [methyl 2-{1-methyl-2-[1-methyl-3-(2-methyloxycarbonylphenylcarbamoyl)-1H-2-indolyldisulfanyl]-1H-3-indolylcarboxamido}benzoate0.5 H2O] as the compound, how does the pIC50 read?
A: 4.81

Q: With `COC(=O)c1cccc(NC(=O)c2c(SSc3c(C(=O)Nc4cccc(C(=O)OC)c4)c4ccccc4n3C)n(C)c3ccccc23)c1` [methyl 3-{1-methyl-2-[1-methyl-3-(3-methyloxycarbonylphenylcarbamoyl)-1H-2-indolyldisulfanyl]-1H-3-indolylcarboxamido}benzoate] as the compound, how does the pIC50 read?
A: 5.27

Q: With `COC(=O)c1ccc(C(=O)c2c(SSc3c(C(=O)c4ccc(C(=O)OC)cc4)c4ccccc4n3C)n(C)c3ccccc23)cc1` [methyl 4-{1-methyl-2-[1-methyl-3-(4-methyloxycarbonylbenzoyl)-1H-2-indolyldisulfanyl]-1H-3-indolylcarbonyl}benzoate] as the compound, how does the pIC50 read?
A: 5.15

Q: With `COC(=O)c1ccc(CNC(=O)c2c(SSc3c(C(=O)NCc4ccc(C(=O)OC)cc4)c4ccccc4n3C)n(C)c3ccccc23)cc1` [methyl 4-{1-methyl-2-[1-methyl-3-(4-methyloxycarbonylbenzylcarbamoyl)-1H-2-indolyldisulfanyl]-1H-3-indolylcarboxamidomethyl}benzoate0.5 H2O] as the compound, how does the pIC50 read?
A: 5.60

Q: With `COC(=O)c1ccc(NC(=O)c2c(SSc3c(C(=O)Nc4ccc(C(=O)OC)cc4)c4ccccc4n3C)n(C)c3ccccc23)cc1` [methyl 4-{1-methyl-2-[1-methyl-3-(4-methyloxycarbonylphenylcarbamoyl)-1H-2-indolyldisulfanyl]-1H-3-indolylcarboxamido}benzoate H2O] as the compound, how does the pIC50 read?
A: 5.38

From BindingDB's records for doi:10.1021/jm00001a011 (University of Auckland, 1995)
